Read-outs that look alike come from different tables or passages of the source.
Experiments:
[1] = system: T1, UdhFp; experiment: NADH formation at […] nm; format: biochemical, Fulvimarina pelagi
T1 construct: gene udh; N-terminal His-tag, tag kept; synthetic codon-optimized gene, E. coli BL21(DE3); start MLEKLLI (from primer)

[2] = system: T2, UdhOg; experiment: NADH formation at […] nm; format: biochemical, Oceanicola granulosus
T2 construct: gene udh; N-terminal His-tag, tag kept; wild-type gene from genomic DNA, E. coli BL21(DE3); start MKKIVLT (from primer)

[3] = substrate: NC(=O)c1ccc[n+]([C@@H]2O[C@H](COP(=O)(O)OP(=O)(O)OC[C@H]3O[C@@H](n4cnc5c(N)ncnc54)[C@H](O)[C@@H]3O)[C@@H](O)[C@H]2O)c1; experiment: purified protein; format: biochemical, Agrobacterium fabrum; settings: 50 mM potassium phosphate pH 8.0, 37°C, uronic acid co-substrate, varied: cofactor
[4] = substrate: NC(=O)c1ccc[n+]([C@@H]2O[C@H](COP(=O)(O)OP(=O)(O)OC[C@H]3O[C@@H](n4cnc5c(N)ncnc54)[C@H](O)[C@@H]3O)[C@@H](O)[C@H]2O)c1; experiment: purified protein; format: biochemical, Pseudomonas syringae group genomosp. 3; settings: 50 mM potassium phosphate pH 8.0, 37°C, uronic acid co-substrate, varied: cofactor
[5] = 50 mM Tris-HCl pH 8.0, 37°C, co-substrate NAD+, read-out: Tris-Buffer / Kinetic parameters / Km
[6] = 50 mM potassium phosphate pH 8.0, 37°C, uronic acid co-substrate, read-out: KPi-Buffer / Kinetic parameters / Km

Molecule: O=C(O)[C@H]1OC(O)[C@@H](O)[C@@H](O)[C@@H]1O (stereo partly shown) [Mannuronate]
- Km [1, 5]: 6400 ± 130 µM

Molecule: NC(=O)c1ccc[n+]([C@@H]2O[C@H](COP(=O)(O)OP(=O)(O)OC[C@H]3O[C@@H](n4cnc5c(N)ncnc54)[C@H](O)[C@@H]3O)[C@@H](O)[C@H]2O)c1 [NAD^+]
- Km [2, 6]: 400 ± 100 µM
- Km [1, 6]: 200 ± 20 µM

Molecule: O=C(O)[C@H]1OC(O)[C@H](O)[C@@H](O)[C@@H]1O (stereo partly shown) [Glucuronate]
- Km [2, 5]: 64000 ± 3000 µM
- Km [1, 5]: 200 ± 30 µM

Molecule: O=C(O)[C@H]1OC(O)[C@H](O)[C@@H](O)[C@H]1O (stereo partly shown) [Galacturonate]
- Km [2, 5]: 55000 ± 3000 µM
- Km [1, 5]: 20 µM

B1: UdhAt (Agrobacterium fabrum str. C58) (protein)
chain: MKRLLVTGAAGQLGRVMRERLAPMAEILRLADLSPLDPAGPNEECVQCDLADANAVNAMVAGCDGIVHLGGISVEKPFEQILQGNIIGLYNLYEAARAHGQPRIVFASSNHTIGYYPQTERLGPDVPARPDGLYGVSKCFGENLARMYFDKFGQETALVRIGSCTPEPNNYRMLSTWFSHDDFVSLIEAVFRAPVLGCPVVWGASANDAGWWDNSHLGFLGWKPKDNAEAFRRHITETTPPPDPNDALVRFQGGTFVDNPIFKQS
notes: N-terminal His-tag, tag kept; synthetic codon-optimized gene, E. coli BL21(DE3)
- Km [3]: 100 ± 0 µM
- kcat [3]: 144 ± 14 s⁻¹
- kcat/Km [3]: 1.08e+06 M⁻¹ s⁻¹

B2: UdhPs (Pseudomonas syringae pv. tomato str. DC3000) (protein)
chain: MASAHTTQTPFNRLLLTGAAGGLGKVLRETLRPYSHILRLSDIAEMAPAVGDHEEVQVCDLADKDAVHRLVEGVDAILHFGGVSVERPFEEILGANICGVFHIYEAARRHGVKRVIFASSNHVIGFYKQNETIDAHSPRRPDSYYGLSKSYGEDMASFYFDRYGIETVSIRIGSSFPEPQNRRMMSTWLSFDDLTRLLERALYTPDVGHTVVYGVSDNKTVWWDNRFASKLDYAPKDSSEVFRAKVDAQPMPADDDPAMVYQGGAFVASGPFGDK
notes: as for B1
- Km [4]: 200 ± 30 µM
- kcat [4]: 215 ± 12 s⁻¹
- kcat/Km [4]: 1.26e+06 M⁻¹ s⁻¹
